According to publication PMC11063955, “A multiplexed time-resolved fluorescence resonance energy transfer ultrahigh-throughput screening assay for targeting the SMAD4–SMAD3–DNA complex” (Journal of Molecular Cell Biology, 2023):
Where two headings read alike, the source gives them in different places.

Legend:
SMAD4–SMAD3 PPI = biological target: T1, SMAD4–SMAD3 PPI (Homo sapiens, UniProt P84022+Q13485); test: Multiplexed TR-FRET assay, Tb–D2 PPI readout (cell lysate-based); assay type: binding; conditions: for inhibition of PPI signal compared to DMSO control, primary screen: 1536-well uHTS, 20 μM, single point
T1 construct: expressed in transfected cells; host or cells: HEK293T (transient co-transfection, lysate used)

[1] = biological target: T2, SMAD4–SMAD3 MH2 domain PPI (Homo sapiens, UniProt P84022+Q13485); test: GST pull-down assay, SMAD4–SMAD3 MH2 domains; assay type: binding
T2 construct: GST-SMAD4-MH2 and VF-SMAD3-MH2 (C and D); expressed in transfected cells; host or cells: HEK293T (lysate)
Procedure: (§1) To validate the hits from the pilot screening, we performed the orthogonal GST pull-down assay using cell lysates from HEK293T cells transfected with Venus-flag-SMAD3 and GST-SMAD4 or Venus-flag-SMAD3-MH2 and GST-SMAD4-MH2. After 48 h of transfection, the cells were lysed in 1% NP-40 lysis buffer, incubated with compounds for 16 h with rotation at 4°C, and then incubated with glutathione-conjugated beads (GE 17527901) for 2 h at 4°C. Beads were washed twice with 1% NP-40 lysis buffer, eluted by boiling in sodium dodecyl sulfate (SDS) sample buffer (Bio-Rad), and subjected to western blot analysis. Proteins in SDS sample buffer were resolved by 10% SDS polyacrylamide gel electrophoresis and transferred to nitrocellulose filter membranes at 100 V for 2 h at 4°C. After blocking in 5% nonfat dry milk in TBST (20 mM Tris-base, 150 mM NaCl, and 0.05% Tween 20) for 1 h at room temperature, the membranes were blotted with the indicated antibodies, mouse monoclonal anti-FLAG-HRP antibody (Sigma‒Aldrich, # A8592) and rabbit polyclonal anti-GST-HRP antibody (Sigma‒Aldrich, Cat# A7340), at 4°C overnight. The membranes were washed three times with 1× TBST for 15 min. […] Luminescence images were captured using the ChemiDoc^TM Touch Imaging System (Bio-Rad).

[2] = biological target: T3, SMAD–SBE4 PDI (SMAD4–SMAD3–DNA complex) (Homo sapiens, UniProt P84022+Q13485); test: Multiplexed TR-FRET assay, Tb–FAM PDI readout (cell lysate-based); assay type: binding; conditions: for inhibition of PDI signal compared to DMSO control, primary screen: 1536-well uHTS, 20 μM, single point
T3 construct: expressed in transfected cells; host or cells: HEK293T (transient co-transfection, lysate used)

[3] = test system: TGFβ-induced SBE4-luc reporter activity in HEK293T cells; test: SBE luciferase reporter assay; assay type: cell-based, Human; conditions: 5 μM compound, TGFβ 10 ng/ml, 18 h
Procedure: SMAD3/SMAD4 complex transcriptional activity was measured using the SBE-luciferase reporter system. HEK293T cells were used to measure the luciferase activity. Cells were plated in 6-well plates and co-transfected with SBE4-Luc plasmid (1 μg, Addgene, 16495) and pDEST26-Renilla plasmid (0.1 μg) using FuGENE® HD (Promega, #E2312). After 24 h of transfection, the cells were pre-treated with GA (MedChemExpress, #HY-N0087) or GNA (MedChemExpress, #HY-5024) at 5 μM for 6 h followed by TGFβ (10 ng/ml, R&D Systems, #240-B) stimulation for an additional 18 h. Renilla and firefly luciferase activities were measured by an Envision Multilabel plate reader (PerkinElmer) using a Dual-Glo luciferase kit (Promega, Cat# E2920) according to the manufacturer's instructions. The normalized luminescence was calculated as the ratio of the luminescence of firefly luciferase over the luminescence of Renilla luciferase.

[4] = biological target: T4, full-length SMAD4–SMAD3 PPI (Homo sapiens, UniProt P84022+Q13485); test: GST pull-down assay, full-length SMAD4–SMAD3; assay type: binding
T4 construct: expressed in transfected cells; host or cells: HEK293T (lysate)
Procedure: as §1

[5] = test system: TGFβ-induced migration of A549 cells; test: Wound-healing assay; assay type: cell-based; conditions: 5 μM compound, TGFβ 10 ng/ml, A549 NucLight Red
Procedure: Briefly, A549 NucLight Red cells were seeded in 96-well plates (Greiner, Cat# 655087) at 40000 cells/well in RPMI 1640 media supplemented with 10% FBS and 1% antibiotics. After 24 h, a wound scratch was created in the confluent cell monolayer using a 96-well woundmaker (Sartorius), followed by washing three times with PBS. Then, the medium was replaced with RPMI 1640 medium without FBS. TGFβ (10 ng/ml), GA (5 μM), or GNA (5 μM) was added at the indicated concentrations. After 24 h of treatment, the plates were imaged using the ImageXpress Micro High-Content Imaging System (Molecular Device). The wound-healing activity was quantified by measuring the width (W) of the wound using ImageJ and expressed as […] × 100.

T3 sequence (Q13485 whole entry): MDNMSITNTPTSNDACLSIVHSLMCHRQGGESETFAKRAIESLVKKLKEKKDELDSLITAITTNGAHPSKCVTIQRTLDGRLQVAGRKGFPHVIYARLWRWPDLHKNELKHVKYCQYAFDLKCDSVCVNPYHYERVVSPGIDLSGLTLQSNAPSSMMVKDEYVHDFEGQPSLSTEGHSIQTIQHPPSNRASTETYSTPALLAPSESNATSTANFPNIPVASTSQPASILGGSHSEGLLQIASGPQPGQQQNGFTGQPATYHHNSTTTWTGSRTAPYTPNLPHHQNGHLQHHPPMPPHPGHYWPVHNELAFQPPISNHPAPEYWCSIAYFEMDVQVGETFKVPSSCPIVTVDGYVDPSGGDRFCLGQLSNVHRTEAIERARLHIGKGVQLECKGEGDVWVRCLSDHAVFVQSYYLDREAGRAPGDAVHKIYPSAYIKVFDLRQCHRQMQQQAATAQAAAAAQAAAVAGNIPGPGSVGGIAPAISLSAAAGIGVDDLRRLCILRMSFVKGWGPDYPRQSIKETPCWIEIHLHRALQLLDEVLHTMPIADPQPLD
T3 sequence (P84022 whole entry): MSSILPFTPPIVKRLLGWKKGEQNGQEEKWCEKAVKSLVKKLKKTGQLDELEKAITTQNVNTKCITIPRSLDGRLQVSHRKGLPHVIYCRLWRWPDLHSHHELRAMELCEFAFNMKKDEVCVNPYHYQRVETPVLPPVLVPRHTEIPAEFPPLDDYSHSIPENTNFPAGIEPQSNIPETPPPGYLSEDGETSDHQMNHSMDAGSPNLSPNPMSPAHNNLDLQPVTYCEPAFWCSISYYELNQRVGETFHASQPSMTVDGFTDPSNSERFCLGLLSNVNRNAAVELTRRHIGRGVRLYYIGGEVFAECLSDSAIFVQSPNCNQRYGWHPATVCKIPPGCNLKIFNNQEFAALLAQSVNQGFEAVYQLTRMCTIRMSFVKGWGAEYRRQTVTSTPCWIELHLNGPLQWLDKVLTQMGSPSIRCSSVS
T1 sequence (Q13485 whole entry): as the sequence (Q13485 whole entry) above
T1 sequence (P84022 whole entry): as the sequence (P84022 whole entry) above
T4 sequence (Q13485 whole entry): as the sequence (Q13485 whole entry) above
T4 sequence (P84022 whole entry): as the sequence (P84022 whole entry) above
T2 sequence (Q13485 323-552): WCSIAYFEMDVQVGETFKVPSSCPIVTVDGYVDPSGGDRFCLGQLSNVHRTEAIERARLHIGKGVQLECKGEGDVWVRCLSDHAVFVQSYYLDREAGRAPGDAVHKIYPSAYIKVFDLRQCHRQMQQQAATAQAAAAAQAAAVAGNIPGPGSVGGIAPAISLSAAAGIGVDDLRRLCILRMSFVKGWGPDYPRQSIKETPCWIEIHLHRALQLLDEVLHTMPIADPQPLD
T2 sequence (P84022 232-425): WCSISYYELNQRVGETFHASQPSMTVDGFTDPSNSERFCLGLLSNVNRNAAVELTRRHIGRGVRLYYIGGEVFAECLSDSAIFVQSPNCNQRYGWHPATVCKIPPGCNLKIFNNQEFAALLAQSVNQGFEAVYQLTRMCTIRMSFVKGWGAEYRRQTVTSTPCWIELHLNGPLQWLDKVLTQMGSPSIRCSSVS

SMILES | inhibition of PPI signal compared to DMSO control, primary screen (SMAD4–SMAD3 PPI) | IC50 (SMAD4–SMAD3 PPI; TR-FRET dose–response confirmation with re-ordered compounds, lysate co-expressing His-SMAD4 and Flag-SMAD3, read-out: IC50, decrease in the PPI signal) [µM] | IC50 ([1]; GST-SMAD4-MH2 and VF-SMAD3-MH2 lysates, densitometry of western blots, read-out: IC50, inhibition of the PPI of SMAD4–SMAD3 MH2 domains) [µM] | inhibition of PDI signal compared to DMSO control, primary screen [2] | IC50 ([2]; TR-FRET dose–response confirmation with re-ordered compounds, 5′-FAM-SBE4 dsDNA, read-out: IC50, decrease in the PDI signal) [µM] | TGFβ-induced SBE4-luc activity [3] | IC50 ([4]; GST-SMAD4 and VF-SMAD3 lysates, densitometry of western blots, read-out: IC50, decrease of SMAD3 protein in the pull-down GST-SMAD4 complex) [µM] | TGFβ-induced A549 cell migration (wound healing) [5] | IC50 (SMAD4–SMAD3 PPI) [µM] | IC50 [1] [µM] | IC50 [2] [µM] | IC50 [4] [µM]
CC(C)=CCC[C@]1(C)C=Cc2c(O)c3c(c(CC=C(C)C)c2O1)O[C@]12C(=C[C@@H]4C[C@H]1C(C)(C)O[C@@]2(C/C=C(/C)C(=O)O)C4=O)C3=O [GA, gambogic acid] | robust inhibitory effects | 4.3 ± 0.5 | ~11.4 | robust inhibitory effects | 36 ± 9.4 | significant reduction | ~11.4 | significantly reduced | – | – | – | –
CC(C)=CCC/C(C)=C/Cc1c(O)c(CC=C(C)C)c2c(c1O)C(=O)C1=C[C@@H]3C[C@H]4C(C)(C)O[C@@](C/C=C(/C)C(=O)O)(C3=O)[C@@]14O2 [GNA, gambogenic acid] | robust inhibitory effects | – | – | robust inhibitory effects | – | significant reduction | – | significantly reduced | 6.4 ± 1.6 | ~9 | 27.6 ± 4.8 | ~8.9
